Several values for one entry are separate records, joined by “and”; a condition that tells them apart may be missing. Equal values may be shown once.
Legend:
Assay type in all cases: biochemical, Erwinia chrysanthemi
[1] = system: ELIC R117A; assay: Asymmetric liposome stopped-flow Tl+ flux assay, mutant; details: 25 mol% outer leaflet POPG, 10 mM propylamine
Protocol: We next tested the effect of mutations that directly interact with the phospholipid in the ELIC5 CA structure (R117, T259), or are near this site and previously shown to interact with cardiolipin (S202, R318A, T259A and W206F) (Fig. 6a)[14]. The mutations were tested as for WT by examining the effect of 25 mol% outer leaflet POPG in paired (no exchange versus exchange) samples (Supplementary Fig. 15). […] Despite the mutations having various effects on ELIC agonist responses, comparison of no exchange and exchange samples enabled assessment of the effect of POPG.
The fluorescence sequential-mixing stopped-flow liposomal flux measurements were carried using an SX20 stopped-flow spectrofluorometer (Applied Photophysics) and Pro-Data SX software[13],[30]. […]
Using propylamine as the agonist, the assay and analysis was carried out as previously described[13],[30]. […] After a variable delay of 10 ms to 25 s, the sample was then mixed 1:1 with a quenching buffer (90 mM NaNO3, 50 mM TlNO3, 10 mM HEPES, pH 7), and ANTS fluorescence (ex. 360 nm, fluorescence above 420 nm) was recorded for 1 s. […] The time course of desensitization was also fit to a double exponential and a weighted time constant was calculated as was done for the patch-clamp data using Origin 2019b. […]
Acceptor liposomes were prepared as described in the Stopped-flow fluorescence recordings section until completion of the extrusion step. […]

[2] = biological target: T1, ELIC3 (V261Y/G319F/I320F) (Dickeya chrysanthemi, UniProt P0C7B7, G318F/I319F/V260Y); assay: Giant liposome excised patch-clamp recordings (2:1:1 POPC:POPE:POPG)
T1 construct: host or cells: OverExpress C43 (DE3) E. coli
T1 sequence (P0C7B7 whole entry V260Y/G318F/I319F): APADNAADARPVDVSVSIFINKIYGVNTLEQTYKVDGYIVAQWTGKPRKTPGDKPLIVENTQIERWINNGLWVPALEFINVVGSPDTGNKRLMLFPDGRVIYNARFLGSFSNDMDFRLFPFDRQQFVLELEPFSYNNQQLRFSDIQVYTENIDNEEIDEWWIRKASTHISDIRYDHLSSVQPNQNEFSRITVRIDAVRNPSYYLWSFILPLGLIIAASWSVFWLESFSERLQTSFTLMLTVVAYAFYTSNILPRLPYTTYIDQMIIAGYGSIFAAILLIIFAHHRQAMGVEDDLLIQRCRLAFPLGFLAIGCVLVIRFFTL
Protocol: (§1) Giant liposome formation and excised patch-clamp recordings of ELIC were performed as previously described[12],[13]. 0.5 mg of WT ELIC, ELIC3 or ELIC5 were reconstituted in 5 mg of 2:1:1 POPC:POPE:POPG liposomes, using DDM destabilization and biobeads. 10 mM MOPS pH 7 and 150 mM NaCl (MOPS buffer) was used throughout. Proteoliposomes were pelleted and resuspended in ~80 µl, and frozen in 10 µl aliquots. Giant liposomes were formed by dehydrating 10 µl of proteoliposomes on a glass coverslip in a vacuum desiccator for ~20 min followed by rehydration with 100 µl of MOPS buffer overnight at 4 °C and 2 hr at RT the following day. The giant liposomes were resuspended by pipetting and applied to a recording chamber. The liposomes were allowed to settle for 15 min, after which free liposomes and debris were removed by exchanging the bath solution. Bath and pipette solutions contained MOPS buffer and 0.5 mM BaCl2 (Sigma). […] Rapid application or washout of agonist were performed using a three-barreled flowpipe mounted to and controlled by a SF-77B fast perfusion system (Warner Instrument Corporation). […] Deactivation time courses were fit with a single exponential while the time course of desensitization was fit with a double exponential. Weighted time constants were calculated using Eq. 1:1 Weighted Tau=A1×τ1+(A2×τ2)/A1+A2 where A1 and A2 are the amplitudes of the first and second exponential components. The data were collected and analyzed using pClamp10.4 software.

[3] = biological target: T2, ELIC5 (P254G/C300S/V261Y/G319F/I320F) (Dickeya chrysanthemi, UniProt P0C7B7, C299S/G318F/I319F/P253G/V260Y); assay: as above
T2 construct: host or cells: OverExpress C43 (DE3) E. coli
T2 sequence (P0C7B7 whole entry P253G/V260Y/C299S/G318F/I319F): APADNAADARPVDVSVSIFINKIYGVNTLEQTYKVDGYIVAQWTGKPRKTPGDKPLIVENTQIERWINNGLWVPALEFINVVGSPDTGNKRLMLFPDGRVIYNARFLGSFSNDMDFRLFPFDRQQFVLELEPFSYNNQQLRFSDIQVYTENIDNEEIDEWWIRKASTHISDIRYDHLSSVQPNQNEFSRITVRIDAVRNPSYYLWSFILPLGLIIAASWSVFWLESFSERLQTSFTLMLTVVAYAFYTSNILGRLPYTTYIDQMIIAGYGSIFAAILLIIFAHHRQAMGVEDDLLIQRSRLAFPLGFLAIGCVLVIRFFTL
Protocol: as §1

[4] = system: WT ELIC; assay: as above
Protocol: as §1

[5] = 2:1:1 giant liposomes, 0.5 mM BaCl2, Hill n set to 2, read-out: EC50 of peak current dose response

SMILES: CCCCCCCC/C=C\CCCCCCCC(=O)OC(COC(=O)CCCCCCCCCCCCCCC)COP(=O)(O)OCC(O)CO (stereo not drawn) [POPG, 1-palmitoyl-2-oleoyl-phosphatidylglycerol]
- POPG modulation (peak response and desensitization) [1]: both effects of POPG (increased peak response and decreased desensitization) are abolished

SMILES: NCCS [cysteamine]
- Peak response (normalized) ([2]; 0.3 mM cysteamine): 0.02035
- Peak response (normalized) ([2]; 1 mM cysteamine): 0.4462
- Peak response (normalized) ([2]; 3 mM cysteamine): 0.7955
- Relative current at 60s, Average ([2]; 10 mM Cys): 0.1185
- Time constant of deactivation, Deactivation Tau ([2]; 10 mM Cys): 1.081 s
- Time constant of desensitizaton, Weighted Tau ([2]; 10 mM Cys): 12.8369 s
- Peak response (normalized) ([2]; 10 mM cysteamine): 1.022
- Relative current at 60s, Average ([2]; 30 mM Cys): 0.08245
- Time constant of deactivation, Deactivation Tau ([2]; 30 mM Cys): 1.658 s
- Time constant of desensitizaton, Weighted Tau ([2]; 30 mM Cys): 8.1999 s
- Peak response (normalized) ([2]; 30 mM cysteamine): 1
- EC50 [2, 5]: 1.2 ± 0.2 mM
- Relative current at 60s ([3]; 10 mM Cys): No evidence of desensitization
- Time constant of deactivation, Deactivation Tau ([3]; 10 mM Cys): 195.719 s
- Time constant of desensitizaton ([3]; 10 mM Cys): No evidence of desensitization
- deactivation rate, fold slower than WT ([3]; after removal of 10 mM cysteamine): ~ 1000 ×
- desensitization ([3]; in the presence of 10 mM cysteamine): no evidence of desensitization
- Peak response (normalized) ([4]; 0.3 mM cysteamine): 0.003114
- Peak response (normalized) ([4]; 1 mM cysteamine): 0.01807
- Peak response (normalized) ([4]; 3 mM cysteamine): 0.2085
- Relative current at 60s, Average ([4]; 10 mM Cys): 0.05101
- Time constant of deactivation, Deactivation Tau ([4]; 10 mM Cys): 0.1636 s
- Time constant of desensitizaton, Weighted Tau ([4]; 10 mM Cys): 4.764 s
- Peak response (normalized) ([4]; 10 mM cysteamine): 0.7416
- Relative current at 60s, Average ([4]; 30 mM Cys): 0.03561
- Time constant of deactivation, Deactivation Tau ([4]; 30 mM Cys): 0.4008 s
- Time constant of desensitizaton, Weighted Tau ([4]; 30 mM Cys): 2.506 s
- Peak response (normalized) ([4]; 30 mM cysteamine): 1
- EC50 [4, 5]: 5.2 mM and 4 to 5 mM
